Laboratory results as given in patent US20220112204A1, “SUBSTITUTED DIHYDROPYRANOPYRIMIDINE COMPOUNDS AS KRAS INHIBITORS” (ACCUTAR BIOTECHNOLOGY INC., priority 2020, published 2022).
Read-outs that look alike come from different tables or passages of the source.

What was measured:
KRAS-G12C mutant [1] = biological target: T1, KRAS-G12C mutant (Homo sapiens, UniProt P01116, G12C); assay: Gel shift assay (SDS-PAGE) for covalent modification of KRAS G12C; assay type: binding; conditions: 0.5 μM compound, 1 μM GDP-bound KRAS G12C, 25° C., 5 minutes, shift indicative of covalent cysteine conjugation
Description: 0.5 μM compounds were incubated with 1 μM GDP-bound untagged KRAS (G12C or wild type) proteins at 25° C. for 5 minutes in 40 μl reaction buffer (50 mM Tris, pH 7.5, 100 mM NaCl, 1 mM MgCl2, 1 mM DTT). The reactions were quenched with 10 μI SDS-PAGE sample loading buffer (250 mM Tris-HCl, pH 6.8, 10% SDS, 0.5% bromophenol blue, 50% glycerol and 50 mM DTT) and then analyzed via SDS-PAGE using 4%-20% gradient polyacrylamide gel followed by Coomassie blue stain.
FIG. 1 illustrates mobility change of KRAS-G12C mutant or wild type proteins on SDS-PAGE after 5 minutes of coincubation at 25° C. with exemplary compounds of the present disclosure, indicative of covalent cysteine conjugation.
Table 3 summarizes molecular weight shift of KRAS-G12C mutant on SDS-PAGE after 5 mins of coincubation at 25° C. with exemplary compounds of the present disclosure, indicative of covalent cysteine conjugation.

KRAS-G12C mutant [2] = biological target: T1, KRAS-G12C mutant; assay: TR-FRET assay of SOS1-assisted KRAS GDP/GTP exchange; assay type: biochemical
Description: GDP form of 6*His tagged KRAS-G12C was diluted to 40 nM and incubated with 8 nM LanthaScreen™ Elite Terbium-anti-HIS Antibody (Thermo, catalog number PV5863) in reaction buffer containing 20 mM Tris, pH 7.5, 100 mM NaCl, 1 mM DTT, 0.1% Tween20, 0.05% BSA, 2% DMSO, 1 mM MgCl2. After 1 hour-incubation at 4° C., proteins were placed in 384 well plate (PerkinElmer, PROXIPLATE-384 PLUS). Then compounds with different concentrations were added to the proteins. BODIPY labeled GTP (Thermo, catalog number G12411) and SOS-1 (or reaction buffer as control) were then added to reactions at 200 nM and 1 μM to trigger the exchange of GDP to BODIPY-GTP. TR-FRET emission signals were determined at 520 nm and 620 nm on a Envision® Multilabel Plate Reader (PerkinElmer) using a 337 nm laser as light source. All data were analyzed and plotted using Graph Pad Prism software (version 8.0.1). Raw TR-FRET data were converted to percentage of inhibition (relative to DMSO) using the following equations: […]
b) For a given test compound concentration X:
Signal (X)=Emission ratio (SOS-1 & GTP)—Emission ratio (buffer & GTP)
c) Percentage of inhibition at concentration X=[1−Signal(X)/Signal (DMSO)]*100%
The […] values were determined by nonlinear regression of plots of [inhibitor] vs. percentage of inhibition with variable slope. Table 4 summarizes inhibition of SOS1-assisted GDP/GTP exchanging activity of KRAS-G12C mutant with exemplary compounds of the present disclosure.

[3] = tested on: phospho-ERK1/2 (Thr202/Tyr204) in MIA PaCa-2 cell line; assay: pERK and ERK Western blot analysis, MIA PaCa-2; assay type: cell-based; conditions: Homo sapiens
Description: MIA PaCa-2 (ATCC), NCI-H358 (ATCC), NCI-H23 (ATCC), SW837 and A549 (ATCC) cells were plated in 24-well plates at 2×10^5cells/well in RPMI growth medium containing 10% FBS and 1× Penicillin Streptomycin. They were then incubated at 37° C. overnight. The following day, the test compound was administered to the cells by using 1000× compound stock solution prepared in DMSO at various concentrations. After administration of the compound, the cells were then incubated at 37° C. for 4 hours. Upon completion, the cells were washed with PBS and protein was collected in Laemmli sample buffer (1×; VWR International). Proteins in cell lysate were separated by SDS-PAGE and transferred to Odyssey nitrocellulose membranes (Licor) with iblot® dry blotting transfer system (ThermoFisher). Nonspecific binding was blocked by incubating membranes with Intercept Blocking Buffer (Licor) for 1 hour at room temperature with gentle shaking. The membranes were then incubated overnight at 4° C. with primary antibodies rabbit anti-phospho p44/42 MAPK (Erk1/2) (1:2,000, Cell Signaling, 4370) and mouse anti-p44/42 MAPK (Erk1/2) (1:1,000, Cell Signaling, 4696) diluted in Intercept Blocking Buffer containing 0.1% Tween 20. After washing 3 times with TBS-T, the membranes were incubated with IRDye® 800CW goat anti-rabbit IgG (1:20,000, Licor) or IRDye® 680CW goat anti-mouse IgG (1:20,000, Licor) for 1 hour. After TBS-T washes, membranes were rinsed in TBS and scanned on Odyssey® CLx Imaging System (Licor). The bands were quantified using Image Studio™ Software (Licor).

MIA PaCa-2 cell line = assay: 3D cell growth assay (CellTiter-Glo), MIA PaCa-2; assay type: cell-based; conditions: Homo sapiens, MIA PaCa-2, 144 h, 6 days, read-out: 3D growth inhibition GI50
Description: MIA PaCa-2 (ATCC), NCI-H358 (ATCC), NCI-H23 (ATCC), SW837 and A549 (ATCC) cells were plated in round bottom 96-well spheroid microplates (Corning, 4520) at 3000 cells/well in 90 ul of RPMI growth medium containing 10% FBS and 1% Penicillin Streptomycin. Cells were incubated at 37° C. overnight. The following day, the test compound was administered to the cells by using 10× compound stock solution prepared in growth medium at various concentrations. After administration of the compound, cells were then incubated at 37° C. for 6 days. Before CellTiter-Glo assay, the plates were equilibrated at room temperature for approximately 10 minutes. 100 ul of CellTiter-Glo® Reagent (Promega, G7573) was added to each well. The plates were then incubated at room temperature for 10 minutes and luminescence was recorded by EnSpire plate reader (PerkinElmer). Table 6 illustrates growth inhibition (G150) by exemplary compounds 1-10 of the present disclosure in a MIA PaCa-2 cell line 6 days after administration in 3D cell culture. A: >0.1 nM and <1 nM; B: >=1 nM and <10 nM; C: >=10 nM and <100 nM; D: >100 nM.

[4] = MIA PaCa-2 cell line, 4 hours after incubation, read-out: 2D pERK IC50
[5] = MIA PaCa-2 cell line, 3D cell culture

Row | SMILES | KRAS-G12C molecular weight shift (KRAS-G12C mutant [1]) | IC50 (KRAS-G12C mutant [2]) [nM] | IC50 [3, 4] [nM] | GI50 (MIA PaCa-2 cell line; [5]) [nM] | IC50 ([3]; MIA PaCa-2, MiaPaCa2, KRAS G12C, 4 hours, read-out: pERK IC50) [nM] | GI50 (MIA PaCa-2 cell line; MiaPaCa2, KRAS G12C, 3D) [nM]
1 | C=C(F)C(=O)N1CCN(c2nc(OCC3(CN4CCCC4)CC3)nc3c2COC(c2cccc4cccc(Cl)c24)C3)C[C@@H]1CC#N (mixture of isomers) [Compound 71, 2-((2S)-4-(7-(8-chloronaphthalen-1-yl)-2-((1-(pyrrolidin-1-ylmethyl)cyclopropyl)methoxy)-7,8-dihydro-5H-pyrano[4,3-d]pyrimidin-4-yl)-1-(2-fluoroacryloyl)piperazin-2-yl)acetonitrile] | Yes | 209 | 10 to 100 | 10 to 100 |  | 
2 | C=C(F)C(=O)N1CCN(c2nc(OC[C@@]34CCCN3C[C@H](F)C4)nc3c2CO[C@@H](c2cccc4cccc(Cl)c24)C3)C[C@@H]1CC#N (single isomer, unassigned) [Compound 63] | No | 6930 | > 100 | 10 to 100 |  | 
3 | C=C(F)C(=O)N1CCN(c2nc(OCC3(CN4CCCC4)CC3)nc3c2CO[C@@H](c2cccc4cccc(Cl)c24)C3)C[C@@H]1CC#N (single isomer, unassigned) [Compound 72] | No | 11600 | > 100 | > 100 |  | 
4 | C=C(F)C(=O)N1CCN(c2nc(OCC3(CN4CCCC4)CC3)nc3c2CO[C@H](c2cccc4cccc(Cl)c24)C3)C[C@@H]1CC#N (single isomer, unassigned) [Compound 73] | Yes | 112 | 10 to 100 | 10 to 100 |  | 
5 | C=CC(=O)N1CCN(c2nc(OC[C@@H]3CCCN3C)nc3c2COC(c2cccc4ccccc24)C3)C[C@@H]1CC#N (stereo partly drawn) [Compound 2, 2-((2S)-1-acryloyl-4-(2-(((S)-1-methylpyrrolidin-2-yl)methoxy)-7-(naphthalen-1-yl)-7,8-dihydro-5H-pyrano[4,3-d]pyrimidin-4-yl)piperazin-2-yl)acetonitrile] |  | 77 | 10 to 100 | 1 to 10 |  | 
6 | C=CC(=O)N1CCN(c2nc(OC[C@@H]3C[C@@H](F)CN3C)nc3c2COC(c2cccc4ccccc24)C3)C[C@@H]1CC#N (stereo partly drawn) [Compound 8, 2-((2S)-1-acryloyl-4-(2-(((2S,4R)-4-fluoro-1-methylpyrrolidin-2-yl)methoxy)-7-(naphthalen-1-yl)-7,8-dihydro-5H-pyrano[4,3-d]pyrimidin-4-yl)piperazin-2-yl)acetonitrile] |  | 238 | 1 to 10 | 10 to 100 |  | 
7 | C=C(F)C(=O)N1CCN(c2nc(OC[C@@H]3CCCN3C)nc3c2CO[C@H](c2cccc4cccc(Cl)c24)C3)C[C@@H]1CC#N [Compound 18, 2-((S)-4-((S)-7-(8-chloronaphthalen-1-yl)-2-(((S)-1-methylpyrrolidin-2-yl)methoxy)-7,8-dihydro-5H-pyrano[4,3-d]pyrimidin-4-yl)-1-(2-fluoroacryloyl)piperazin-2-yl)acetonitrile] | Yes | 78 | 10 to 100 | 1 to 10 | 21.9 | 7.3
8 | C=C(F)C(=O)N1CCN(c2nc(OCC34CCCN3CCC4)nc3c2COC(c2cccc4cccc(C)c24)C3)C[C@@H]1CC#N (stereo partly drawn) [Compound 56, 2-((2S)-1-(2-fluoroacryloyl)-4-(7-(8-methylnaphthalen-1-yl)-2-((tetrahydro-1H-pyrrolizin-7a(5H)-yl)methoxy)-7,8-dihydro-5H-pyrano[4,3-d]pyrimidin-4-yl)piperazin-2-yl)acetonitrile] | Yes | 70 | 10 to 100 | 1 to 10 |  | 

The next molecules have a lower IC50 (KRAS-G12C mutant [2]) than those just listed; values first:

Row | KRAS-G12C molecular weight shift (KRAS-G12C mutant [1]) | IC50 (KRAS-G12C mutant [2]) [nM] | IC50 [3, 4] [nM] | GI50 (MIA PaCa-2 cell line; [5]) [nM] | IC50 ([3]; MIA PaCa-2, MiaPaCa2, KRAS G12C, 4 hours, read-out: pERK IC50) [nM] | GI50 (MIA PaCa-2 cell line; MiaPaCa2, KRAS G12C, 3D) [nM] | SMILES
9 | Yes | 19 | 10 to 100 | 1 to 10 |  |  | C=C(F)C(=O)N1CCN(c2nc(OCC34CCCN3CCC4)nc3c2CO[C@H](c2cccc4cccc(C)c24)C3)C[C@@H]1CC#N (single isomer, unassigned) [Compound 58]
10 |  | 49 | 1 to 10 | 1 to 10 |  |  | C=CC(=O)N1CCN(c2nc(OC[C@@H]3CCCN3C)nc3c2CO[C@H](c2cccc4ccccc24)C3)C[C@@H]1CC#N [Compound 4, 2-((S)-1-acryloyl-4-((S)-2-(((S)-1-methylpyrrolidin-2-yl)methoxy)-7-(naphthalen-1-yl)-7,8-dihydro-5H-pyrano[4,3-d]pyrimidin-4-yl)piperazin-2-yl)acetonitrile]
11 |  | 19 | 0.1 to 1 | 1 to 10 |  |  | C=CC(=O)N1CCN(c2nc(OC[C@@H]3CCCN3C)nc3c2CO[C@H](c2cccc4cccc(Cl)c24)C3)C[C@@H]1CC#N [Compound 7, 2-((S)-1-acryloyl-4-((S)-7-(8-chloronaphthalen-1-yl)-2-(((S)-1-methylpyrrolidin-2-yl)methoxy)-7,8-dihydro-5H-pyrano[4,3-d]pyrimidin-4-yl)piperazin-2-yl)acetonitrile]
12 |  | 1 | 10 to 100 | 10 to 100 |  |  | C=CC(=O)N1CCN(c2nc(OC[C@@H]3C[C@H](F)CN3C)nc3c2CO[C@H](c2cccc4ccccc24)C3)C[C@@H]1CC#N [Compound 9, 2-((S)-1-acryloyl-4-((S)-2-(((2S,4S)-4-fluoro-1-methylpyrrolidin-2-yl)methoxy)-7-(naphthalen-1-yl)-7,8-dihydro-5H-pyrano[4,3-d]pyrimidin-4-yl)piperazin-2-yl)acetonitrile]
13 | Yes | 45 | 1 to 10 | 1 to 10 |  |  | C=C(F)C(=O)N1CCN(c2nc(OCC34CCCN3CCC4)nc3c2COC(c2cccc4cccc(Cl)c24)C3)C[C@@H]1CC#N (stereo partly drawn) [Compound 53, 2-((2S)-4-(7-(8-chloronaphthalen-1-yl)-2-((tetrahydro-1H-pyrrolizin-7a(5H)-yl)methoxy)-7,8-dihydro-5H-pyrano[4,3-d]pyrimidin-4-yl)-1-(2-fluoroacryloyl)piperazin-2-yl)acetonitrile]
